According to patent US20090005375A1, “ACETYL COENZYME A CARBOXYLASE INHIBITORS” (priority 2007, published 2009):

Tests used:
[1] = molecular target: T1, Human ACC2 (Homo sapiens, UniProt O00763); test: In vitro enzymatic ACC activity assay (malachite green), ACC2; format: biochemical; conditions: recombinant His-tagged enzyme, absorbance at 620 nm
T1 construct: made in house; host or cells: SF-9 insect cells (baculovirus, pFAST-BacHTa)
Procedure: (§1) Provided in Example A is an in vitro enzymatic ACC activity assay for activity against ACC. The binding affinity of the test compound to ACC1 or ACC2 is determined by the changes in absorbance (at 620 nm); […]. It should be noted that a variety of other expression systems and hosts are also suitable for the expression of ACC, as would be readily appreciated by one of skill in the art.
Human ACC2 cDNA except coding region for mitochondria localization sequence was amplified from human skeletal muscle cDNA by polymerase chain reaction using primers; 5′[…]3′ (SEQ ID NO: 3) and 5′[…]3′ (SEQ ID NO: 4). The amplified DNA fragment was digested by SalI and AflII, and cloned into pFAST-BacHTa (Invitrogen). Preparation of recombinant vaculovirus, infection of the virus to SF-9 cells and purification of recombinant ACC2 protein with 6×His-tag at the N-terminal were performed in the same method as described above.
(§2) Malachite green solution was prepared by mixing 100 mL of solution A (0.12% malachite green in 5NH2SO4), 25 mL of solution B (7.5% ammonium molybdate) and 2 mL of solution C (11% TWEEN-20).
(§3) ACC1 was diluted to 8 μg/mL in reaction buffer (50 mM HEPES pH7.5, 10 mM MgCl2, 10 mM tripotassium citrate, 2 mM DTT, 0.75 mg/mL fatty acid free BSA) and 10 μL diluted enzyme solution was pored into each well of 384-well clear bottom plate. Test compound was diluted in the reaction buffer and 5 μL of the compound solution was added into each well, and the mixture was incubated at 30° C. for 60 minutes. Reaction was initiated by addition of 5 μL substrate solution (50 mM KHCO3, 200 μM ATP, 200 μM acetyl-CoA). After incubation at 30° C. for 20 minutes, reaction was terminated by addition of 5 μL malachite green solution and absorbance at 620 nm was measured.
ACC2 was diluted to 6.4 μg/mL in reaction buffer, and the activity was measured by the same method as described for ACC1.
(§4) Percent activity at each concentration of compound was calculated from the following equation: […]
(§5) Data were subjected to nonlinear regression analysis using GraphPad Prism Software (GraphPad Software Inc.) to obtain IC50 values.

[2] = molecular target: T2, Human ACC1 (Homo sapiens, UniProt Q13085); test: In vitro enzymatic ACC activity assay (malachite green), ACC1; format: biochemical; conditions: recombinant His-tagged enzyme, absorbance at 620 nm
T2 construct: made in house; host or cells: SF-9 insect cells (baculovirus, pFAST-BacHTc)
Procedure: as §1
Human ACC1 cDNA was amplified from human liver cDNA by polymerase chain reaction using primers; 5′[…]3′ (SEQ ID NO: 1) and 5′[…]3′ (SEQ ID NO: 2). The amplified DNA fragment was digested by restriction enzyme SalI and NotI, and cloned into pFAST-BacHTc (Invitrogen). This plasmid DNA was used for preparation of recombinant vaculovirus with BAC-TO-BAC Baculovirus Expression System (Invitrogen).
SF-9 cells were infected with the vaculovirus and cultured at 27° C. for 3 days. Harvested cells were homogenized in buffer A (25 mM HEPES (pH7.5), 130 mM NaCl, 1 mM EDTA, 25 mM sodium glycerophosphate, 1 mM sodium orthovanadate, 10% glycerol, complete protease inhibitor), and subjected to ultracentrifuge at 185700×g for 50 min at 4° C. ACC1 protein with 6×His-tag at the N-terminal was purified from the supernatant using Ni-NTA Super Flow Gel (QIAGEN). Eluted protein was dialysed against buffer B (50 mM HEPES (pH 7.5), 300 mM NaCl, 10 mM MgCl2, 10 mM tripotassium citrate, 2 mM dithiothreitol) and concentrated using Vivaspin20 ultrafiltration tube (Sartorius).
as §2, §3, §4, §5

T1 sequence (O00763 117-2458 limits assumed): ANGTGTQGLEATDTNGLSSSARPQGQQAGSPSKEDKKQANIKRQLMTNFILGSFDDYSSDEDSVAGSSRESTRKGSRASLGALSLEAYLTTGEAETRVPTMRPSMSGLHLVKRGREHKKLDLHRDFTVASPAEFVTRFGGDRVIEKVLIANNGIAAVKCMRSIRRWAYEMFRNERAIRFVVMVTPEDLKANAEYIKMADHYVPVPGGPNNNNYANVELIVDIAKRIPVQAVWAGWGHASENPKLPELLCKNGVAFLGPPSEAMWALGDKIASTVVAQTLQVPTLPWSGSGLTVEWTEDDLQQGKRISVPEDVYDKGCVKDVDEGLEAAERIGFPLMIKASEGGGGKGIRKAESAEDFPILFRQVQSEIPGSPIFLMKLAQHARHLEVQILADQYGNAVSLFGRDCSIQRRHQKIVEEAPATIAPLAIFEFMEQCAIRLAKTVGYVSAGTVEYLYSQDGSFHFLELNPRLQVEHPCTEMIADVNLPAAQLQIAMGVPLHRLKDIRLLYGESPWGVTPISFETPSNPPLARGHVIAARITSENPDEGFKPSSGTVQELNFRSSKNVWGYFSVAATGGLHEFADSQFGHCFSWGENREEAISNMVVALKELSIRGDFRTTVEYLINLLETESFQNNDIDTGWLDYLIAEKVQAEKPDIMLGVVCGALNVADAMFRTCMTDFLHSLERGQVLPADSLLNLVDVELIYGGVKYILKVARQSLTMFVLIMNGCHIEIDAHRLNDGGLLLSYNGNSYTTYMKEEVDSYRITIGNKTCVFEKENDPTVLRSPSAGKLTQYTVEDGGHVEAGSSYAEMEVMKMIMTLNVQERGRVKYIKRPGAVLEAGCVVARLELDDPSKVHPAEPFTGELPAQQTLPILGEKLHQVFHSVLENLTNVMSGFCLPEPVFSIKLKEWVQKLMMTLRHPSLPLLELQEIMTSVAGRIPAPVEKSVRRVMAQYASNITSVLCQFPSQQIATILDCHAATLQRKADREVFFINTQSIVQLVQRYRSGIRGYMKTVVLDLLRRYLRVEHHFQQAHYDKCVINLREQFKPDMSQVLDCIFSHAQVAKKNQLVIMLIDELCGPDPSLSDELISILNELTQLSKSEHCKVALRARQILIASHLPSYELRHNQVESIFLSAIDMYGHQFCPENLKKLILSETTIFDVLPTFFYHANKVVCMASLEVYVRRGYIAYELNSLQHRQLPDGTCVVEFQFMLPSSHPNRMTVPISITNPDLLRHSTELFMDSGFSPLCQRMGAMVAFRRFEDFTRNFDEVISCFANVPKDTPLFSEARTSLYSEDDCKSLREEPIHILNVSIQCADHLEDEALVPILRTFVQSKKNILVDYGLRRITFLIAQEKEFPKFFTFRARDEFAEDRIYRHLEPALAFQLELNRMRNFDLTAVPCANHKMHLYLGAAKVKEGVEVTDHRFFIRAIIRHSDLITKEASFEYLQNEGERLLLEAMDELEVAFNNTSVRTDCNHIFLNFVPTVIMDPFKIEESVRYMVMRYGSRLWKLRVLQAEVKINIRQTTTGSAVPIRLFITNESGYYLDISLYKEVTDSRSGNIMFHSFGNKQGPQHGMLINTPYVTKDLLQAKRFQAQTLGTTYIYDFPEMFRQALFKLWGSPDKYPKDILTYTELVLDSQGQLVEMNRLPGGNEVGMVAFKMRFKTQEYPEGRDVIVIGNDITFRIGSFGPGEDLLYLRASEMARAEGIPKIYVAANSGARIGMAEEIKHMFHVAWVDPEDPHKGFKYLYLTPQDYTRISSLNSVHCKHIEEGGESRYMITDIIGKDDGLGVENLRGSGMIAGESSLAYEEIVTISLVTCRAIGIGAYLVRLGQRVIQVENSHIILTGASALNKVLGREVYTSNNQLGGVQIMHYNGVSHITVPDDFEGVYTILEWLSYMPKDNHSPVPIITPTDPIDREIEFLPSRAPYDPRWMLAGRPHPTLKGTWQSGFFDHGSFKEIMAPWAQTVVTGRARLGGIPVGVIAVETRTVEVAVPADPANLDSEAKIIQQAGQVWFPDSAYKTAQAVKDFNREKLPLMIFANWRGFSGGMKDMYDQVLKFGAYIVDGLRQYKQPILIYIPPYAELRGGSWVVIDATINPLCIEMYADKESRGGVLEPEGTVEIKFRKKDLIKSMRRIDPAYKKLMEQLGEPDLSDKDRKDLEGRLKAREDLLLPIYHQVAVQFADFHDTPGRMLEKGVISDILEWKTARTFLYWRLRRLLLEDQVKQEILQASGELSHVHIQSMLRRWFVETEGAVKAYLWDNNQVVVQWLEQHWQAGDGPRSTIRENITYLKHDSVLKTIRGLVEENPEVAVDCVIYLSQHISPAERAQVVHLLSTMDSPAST

Compound | IC50 [1] | IC50 [2]
CCNC(=O)Nc1sc2ccccc2c1C(=O)N1CCN(S(=O)(=O)CCC(=O)N(CC)CC)CC1 [Example 34, N,N-diethyl-3-(4-(2-(3-ethylureido)benzo[b]thiophene-3-carbonyl)piperazin-1-ylsulfonyl)propanamide] | 5 to 50 µM | 5 to 50 µM
CCNC(=O)Nc1sc2ccccc2c1C(=O)N1CCN(S(=O)(=O)c2cccc(OC(F)(F)F)c2)CC1 [Example 15, ethyl-3-(3-(4-(3-(trifluoromethoxy)phenylsulfonyl)piperazine-1-carbonyl)benzo[f]thiophen-2-yl)urea] | > 50 µM | > 50 µM
CCNC(=O)Nc1sc2ccccc2c1C(=O)N1CCN(S(=O)(=O)c2cccc(-c3csc(C)n3)c2)CC1 [Example 10, ethyl-3-(3-(4-(3-(2-methylthiazol-4-yl)phenylsulfonyl)piperazine-1-carbonyl)benzo[b]thiophen-2-yl)urea] | 5 to 50 µM | > 50 µM
CCNC(=O)Nc1sc2ccccc2c1C(=O)N1CCN(S(=O)(=O)c2cccc(C(C)=O)c2)CC1 [Example 20, 1-(3-(4-(3-acetylphenylsulfonyl)piperazine-1-carbonyl)benzo[b]thiophen-2-yl)-3-ethylurea] | < 5 µM | < 5 µM
CCNC(=O)Nc1sc2ccccc2c1C(=O)N1CCN(S(=O)(=O)c2cccc(-c3ccnc(C)n3)c2)CC1 [Example 12, ethyl-3-(3-(4-(3-(2-methylpyrimidin-4-yl)phenylsulfonyl)piperazine-1-carbonyl)benzo[b]thiophen-2-yl)urea] | < 5 µM | 5 to 50 µM
CCNC(=O)Nc1sc2ccccc2c1C(=O)N1CCN(S(=O)(=O)c2ccc(NC(C)=O)cc2)CC1 [Example 24, N-(4-(4-(2-(3-ethylureido)benzo[b]thiophene-3-carbonyl)piperazin-1-ylsulfonyl)phenyl)acetamide] | < 5 µM | < 5 µM
CCNC(=O)Nc1sc2ccccc2c1C(=O)N1CCC(S(=O)(=O)c2ccc3c(c2)OCO3)CC1 [Example 38, 1-(3-(4-(benzo[d][1,3]dioxol-5-ylsulfonyl)piperidine-1-carbonyl)benzo[b]thiophen-2-yl)-3-ethylurea] | > 50 µM | > 50 µM
CCNC(=O)Nc1sc2ccccc2c1C(=O)N1CCC(S(=O)(=O)c2cccc(OC)c2)CC1 [Example 37, ethyl-3-(3-(4-(3-methoxyphenylsulfonyl)piperidine-1-carbonyl)benzo[b]thiophen-2-yl)urea] | < 5 µM | > 50 µM
CCNC(=O)Nc1sc2ccccc2c1C(=O)N1CCN(S(=O)(=O)c2cccc(-c3nnc(C)o3)c2)CC1 [Example 11, ethyl-3-(3-(4-(3-(5-methyl-1,3,4-oxadiazol-2-yl)phenylsulfonyl)piperazine-1-carbonyl)benzo[b]thiophen-2-yl)urea] | 5 to 50 µM | 5 to 50 µM
CCNC(=O)Nc1sc2ccccc2c1C(=O)N1CCN(S(=O)(=O)c2cccc([N+](=O)[O-])c2)CC1 [Example 16, ethyl-3-(3-(4-(3-nitrophenylsulfonyl)piperazine-1-carbonyl)benzo[b]thiophen-2-yl)urea] | > 50 µM | > 50 µM
CCNC(=O)Nc1sc2ccccc2c1C(=O)N1CCN(S(=O)(=O)CCC(=O)N2CCCC2)CC1 [Example 35, ethyl-3-(3-(4-(3-oxo-3-(pyrrolidin-1-yl)propylsulfonyl)piperazine-1-carbonyl)benzo[b]thiophen-2-yl)urea] | 5 to 50 µM | 5 to 50 µM
CCNC(=O)Nc1sc2ccccc2c1C(=O)N1CCN(S(=O)(=O)C2CCS(=O)(=O)C2)CC1 (stereo not drawn) [Example 17, ethyl-3-(3-(4-(1,1-dioxotetrahydrothiophen-3-ylsulfonyl)piperazine-1-carbonyl)benzo[b]thiophen-2-yl)urea] | 5 to 50 µM | 5 to 50 µM
CCNC(=O)Nc1sc2ccccc2c1C(=O)N1CCN(S(=O)(=O)c2ccc(N3CCCC3=O)cc2)CC1 [Example 22, ethyl-3-(3-(4-(4-(2-oxopyrrolidin-1-yl)phenylsulfonyl)piperazine-1-carbonyl)benzo[b]thiophen-2-yl)urea] | < 5 µM | > 50 µM
CCNC(=O)Nc1sc2ccccc2c1C(=O)N1CCN(S(=O)(=O)c2ccc(OC)c(NC(C)=O)c2)CC1 [Example 19, N-(5-(4-(2-(3-ethylureido)benzo[b]thiophene-3-carbonyl)piperazin-1-ylsulfonyl)-2-methoxyphenyl)acetamide] | < 5 µM | < 5 µM
CCNC(=O)Nc1sc2ccccc2c1C(=O)N1CCN(S(=O)(=O)c2ccc(S(C)(=O)=O)cc2)CC1 [Example 29, ethyl-3-(3-(4-(4-(methylsulfonyl)phenylsulfonyl)piperazine-1-carbonyl)benzo[b]thiophen-2-yl)urea] | 5 to 50 µM | > 50 µM
